In patent US20140350078A1, “CONTROLLING REGULATORY T CELL FUNCTION” (NEW YORK UNIVERSITY, priority 2011, published 2014):

Columns and labels:
[1] = test system: Treg suppressive function; assay: In vitro suppression assay (Tregs co-cultured with CD4+CD25- T cells at 1:3); format: cell-based, human; settings: pre-treatment of Treg at 1 μM for 30 minutes, supernatants after 48 hours
Protocol: In Vitro Suppression Assays—CD4^+CD25^+ T cells were treated or not, washed, and added at a ratio of 1:3 ([…]) to CD4^+CD25^− T cells at final concentration of 2×10^6 per mL (cytokine secretion) or 2×10^5 per mL (proliferation). The cells were co-cultured on anti-CD3 mAb (5 μg/mL) pre-coated 24-well plates for 24-48 hours (cytokine secretion) or 96 hours (proliferation). Human TNF-α (210-TA) was purchased from R&D Systems and added to co-cultures where indicated. […] Cytokine secretion was determined by ELISA as described (Zanin-Zhorov et al., “Protein Kinase C-Theta Mediates Negative Feedback on Regulatory T Cell Function,” Science 328:372-376 (2010), which is hereby incorporated by reference in its entirety), using human IFN-γ Cytoset (Biosource) and IL-17 and -4 (Invitrogen). Proliferation was assessed by carboxyfluorescein diacetate succinimidyl ester (CFSE) dilution as described (Tran et al., “Analysis of Adhesion Molecules, Target Cells, and Role of IL-2 in Human FOXP3+ Regulatory T Cell Suppressor Function,” J. Immunol. 182:2929-2938 (2009), which is hereby incorporated by reference in its entirety).

Foxp3 = settings: literature (Valencia et al.; Zanin-Zhorov et al.); cited from earlier work
[2] = test system: Dlgh1 recruitment to the IS in Tregs; assay: Dlgh1 recruitment to the immunological synapse on planar lipid bilayers, imaged by TIRFM; format: cell-based, human; settings: Tregs from healthy donors, 50 ng/mL overnight
Protocol: Planar lipid bilayers containing anti-CD3 antibodies (5 μg/mL) and ICAM-1 (250 molecules per mm^2) were prepared in parallel-plate flow cells as described (Zanin-Zhorov et al., “Protein Kinase C-Theta Mediates Negative Feedback on Regulatory T Cell Function,” Science 328:372-376 (2010), which is hereby incorporated by reference in its entirety). The flow cell containing the bilayers was warmed up to 37° C.; cells were injected in 500 μL of Hepes-buffered saline containing 1% human serum albumin; and images were collected on a custom automated Nikon inverted fluorescence microscope.
All TIRF imaging was performed on the custom automated Nikon inverted fluorescence microscope using the 100×/1.45 N.A. TIRF objective from Nikon. […]
The pro-inflammatory mediator TNF-α inhibits suppressive activity and down-regulates Foxp3 in human Treg (Valencia et al., “TNF Downmodulates the Function of Human CD4+CD25hi T-Regulatory Cells,” Blood 108(1):253-261 (2006); Zanin-Zhorov et al., “Protein Kinase C-Theta Mediates Negative Feedback on Regulatory T Cell Function,” Science 328(5976):372-376 (2010), both of which are hereby incorporated by reference in their entirety). To investigate whether Dlgh1 recruitment to IS correlates with suppressive function of Treg, Treg was incubated with TNF-α overnight and then analyzed Dlgh1 recruitment to the IS as described above. […]

[3] = test system: Treg suppressive function; settings: literature (Valencia et al.; Zanin-Zhorov et al.); cited from earlier work

Compound | ability of Treg to suppress IFN-γ secretion from CD4+CD25- T cells [1] | Foxp3 in human Treg (Foxp3) | levels of Dlgh1 at IS in Tregs [2] | suppressive activity of human Treg [3]
C[S+]([O-])c1ccc(-c2nc(-c3ccncc3)c(-c3ccc(F)cc3)[nH]2)cc1 (stereo not shown) [SB203580] | significantly down-regulated | – | – | –
TNF-α | – | down-regulates | significantly reduced | inhibits
